# From patent publication US7842808B2, “Anti-migraine spirocycles” (Bristol-Myers Squibb Company, priority 2002, dated 2010)
# Biological target: T1, CGRP receptor (SK-N-MC cell membranes) (Homo sapiens, UniProt O60894+Q16602)
# T1 construct: endogenous in cells; host or cells: SK-N-MC cells (membrane homogenate)
# Test: CGRP Binding Assay ([125I]-CGRP radioligand binding, SK-N-MC homogenate)
# Settings: displacement of [125I]-CGRP, SK-N-MC homogenate; read-out: CGRP binding IC50
# Description: Tissue Culture. SK-N-MC cells were grown at 37° C. in 5% CO2 as a monolayer in medium consisting of MEM with Earle's salts and L-glutamine (Gibco) supplemented with 10% fetal bovine serum (Gibco).
# Cell Pellets. […] The cells were transferred from plates to polypropylene tubes (16×100 mm) and homogenized using a polytron. Homogenates were centrifuged at 32,000×g for 30 min. The pellets were resuspended in cold hypotonic lysis buffer with 0.1% mammalian protease inhibitor cocktail (Sigma) and assayed for protein concentration. The SK-N-MC homogenate was then aliquoted and stored at −80° C. until needed.
# Radioligand Binding Assay. The compounds of invention were solubilized and carried through serial dilutions using 100% DMSO. Aliquots from the compound serial dilutions were further diluted 25 fold into assay buffer (50 mM Tris-Cl pH 7.5, 5 mM MgCl2, 0.005% Triton X-100) and transferred (volume 50 μl) into 96 well assay plates. […] SK-N-MC pellets were thawed, diluted in assay buffer with fresh 0.1% mammalian protease inhibitor cocktail (Sigma), and homogenized again. SK-N-MC homogenate (5 μg/well) was added in a volume of 100 μl. The assay plates were then incubated at room temperature for 2 h. Assays were stopped by addition of excess cold wash buffer (20 mM Tris-Cl pH 7.5, 0.1% BSA) immediately followed by filtration over glass fiber filters (Whatman GF/B) previously soaked in 0.5% PEI. Non-specific binding was defined with 1 μM beta-CGRP. Protein bound radioactivity was determined using a gamma or scintillation counter.
# T1 sequence (Q16602 23-461): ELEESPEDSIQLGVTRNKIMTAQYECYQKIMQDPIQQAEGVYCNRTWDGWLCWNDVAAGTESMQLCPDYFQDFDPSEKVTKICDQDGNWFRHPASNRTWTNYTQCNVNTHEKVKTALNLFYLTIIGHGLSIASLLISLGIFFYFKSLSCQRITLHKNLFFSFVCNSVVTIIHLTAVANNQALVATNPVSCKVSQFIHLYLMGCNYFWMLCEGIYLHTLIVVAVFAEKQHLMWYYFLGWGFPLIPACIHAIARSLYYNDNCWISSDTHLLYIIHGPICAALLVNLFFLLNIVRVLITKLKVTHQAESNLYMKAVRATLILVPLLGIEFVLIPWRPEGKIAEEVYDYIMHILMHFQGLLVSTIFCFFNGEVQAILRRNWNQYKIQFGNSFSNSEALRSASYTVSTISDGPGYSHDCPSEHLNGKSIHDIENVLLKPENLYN
# T1 sequence (O60894 27-148): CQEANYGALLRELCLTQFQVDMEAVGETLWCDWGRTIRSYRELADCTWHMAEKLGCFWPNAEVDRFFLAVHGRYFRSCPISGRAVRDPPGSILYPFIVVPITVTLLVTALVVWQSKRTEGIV
row,IC50 [nM],Structure (SMILES)
1,100 to 1000,O=C(Nc1ccccc1Oc1ccccc1)N[C@@H](CC(=O)N1CCC(N2Cc3ccccc3NC2=O)CC1)C(=O)N1CCC(N2CCCCC2)CC1 [Example 136]
2,100 to 1000,O=C(Nc1cc(Cl)nc(Cl)c1)N[C@@H](CC(=O)N1CCC(N2Cc3ccccc3NC2=O)CC1)C(=O)N1CCC(N2CCCCC2)CC1 [Example 164]
3,100 to 1000,O=C(Nc1ccc(-c2ccccc2)cc1)N[C@@H](CC(=O)N1CCC(N2Cc3ccccc3NC2=O)CC1)C(=O)N1CCC(N2CCCCC2)CC1 [Example 144]
4,100 to 1000,CCOC(=O)c1ccc(NC(=O)N[C@@H](CC(=O)N2CCC(N3Cc4ccccc4NC3=O)CC2)C(=O)N2CCC(N3CCCCC3)CC2)cc1 [Example 182]
5,> 1000,"O=C(NC(CN1CCC(O)CC1)C(=O)N1CCC(N2CCCCC2)CC1)N1CCC(N2Cc3ccccc3NC2=O)CC1 (racemic) [Example 53, (±)-4-(2-Oxo-1,4-dihydro-2H-quinazolin-3-yl)-piperidine-1-carboxylic acid[2-[1,4′]bipiperidinyl-1′-yl-1-(4-hydroxy-piperidin-1-ylmethyl)-2-oxo-ethyl]-amide]"
6,100 to 1000,COc1ccc(CC(=O)N[C@@H](CC(=O)N2CCC(N3Cc4ccccc4NC3=O)CC2)C(=O)N2CCC(N3CCCCC3)CC2)cc1OC [Example 109]
7,100 to 1000,O=C(Nc1ccccc1)N[C@@H](CC(=O)N1CCC(N2Cc3ccccc3NC2=O)CC1)C(=O)N1CCC(N2CCCCC2)CC1 [Example 143]
8,> 1000,"O=C(C[C@H](Nc1ccncn1)C(=O)N1CCC(N2CCCCC2)CC1)N1CCC(N2Cc3ccccc3NC2=O)CC1 [Example 96, (L)-1-[1,4′]Bipiperidinyl-1′-yl-4-[4-(2-oxo-1,4-dihydro-2H-quinazolin-3-yl)-piperidin-1-yl]-2-(pyrimidin-4-ylamino)-butane-1,4-dione]"
9,> 1000,"O=C(NC(Cn1ccc(OCc2ccccc2)cc1=O)C(=O)N1CCC(N2CCCCC2)CC1)N1CCC(N2Cc3ccccc3NC2=O)CC1 (racemic) [Example 51, (±)-4-(2-Oxo-1,4-dihydro-2H-quinazolin-3-yl)-piperidine-1-carboxylic acid[1-(4-benzyloxy-2-oxo-2H pyridin-1-ylmethyl)-2-[1,4′]bipiperidinyl-1′-yl-2-oxo-ethyl]-amide]"
10,100 to 1000,CC(=O)c1cccc(NC(=O)N[C@@H](CC(=O)N2CCC(N3Cc4ccccc4NC3=O)CC2)C(=O)N2CCC(N3CCCCC3)CC2)c1 [Example 147]
11,100 to 1000,Cc1ccc(NC(=O)N[C@@H](CC(=O)N2CCC(N3Cc4ccccc4NC3=O)CC2)C(=O)N2CCC(N3CCCCC3)CC2)cc1Cl [Example 186]
12,> 1000,"COC(=O)C(Cc1cc(C)c2[nH]ncc2c1)NC(=O)N1CCC2(CC1)OC(=O)Nc1ccccc12 (centres unmarked) [Example 14, 3-(7-Methyl-1H-indazol-5-yl)-2-(1,2-dihydro-2-oxospiro-4H-3,1-dihydro-benzoxazine-4′4-piperidine-carbonylamino)-propionic acid methyl ester]"
13,100 to 1000,O=C(Nc1cc(C(F)(F)F)ccc1Cl)N[C@@H](CC(=O)N1CCC(N2Cc3ccccc3NC2=O)CC1)C(=O)N1CCC(N2CCCCC2)CC1 [Example 167]
14,10 to 100,O=C(Nc1ccc(F)c(Cl)c1)N[C@@H](CC(=O)N1CCC(N2Cc3ccccc3NC2=O)CC1)C(=O)N1CCC(N2CCCCC2)CC1 [Example 193]
15,100 to 1000,O=C(Nc1ccc(Br)cc1)N[C@@H](CC(=O)N1CCC(N2Cc3ccccc3NC2=O)CC1)C(=O)N1CCC(N2CCCCC2)CC1 [Example 179]
16,100 to 1000,Cc1cc(C)c(NC(=O)N[C@@H](CC(=O)N2CCC(N3Cc4ccccc4NC3=O)CC2)C(=O)N2CCC(N3CCCCC3)CC2)cc1C [Example 139]
17,> 1000,CCCCC(CC)CN1CCN(C(=O)C(Cc2ccc3[nH]ncc3c2)NC(=O)N2CCC(N3Cc4ccccc4NC3=O)CC2)CC1 (centres unmarked) [Example 40f]
18,100 to 1000,O=C(N[C@@H](CC(=O)N1CCC(N2Cc3ccccc3NC2=O)CC1)C(=O)N1CCC(N2CCCCC2)CC1)c1cc(C(F)(F)F)cc(C(F)(F)F)c1 [Example 107]
19,100 to 1000,O=C(Cc1ccccc1)N[C@@H](CC(=O)N1CCC(N2Cc3ccccc3NC2=O)CC1)C(=O)N1CCC(N2CCCCC2)CC1 [Example 106]

row,IC50 [nM],Structure (SMILES)
1,100 to 1000,O=C(N[C@@H](CC(=O)N1CCC(N2Cc3ccccc3NC2=O)CC1)C(=O)N1CCC(N2CCCCC2)CC1)c1ccc(Cl)c(Cl)c1 [Example 111]
2,10 to 100,"Cc1cc(CC(NC(=O)N2CCC(N3Cc4ccccc4NC3=O)CC2)C(=O)OC2CCC(c3ccccc3)CC2)cc2cn[nH]c12 (centres unmarked) [Example 41d, 3-(7-Methyl-1H-indazol-5-yl)-2-{[4-(2-oxo-1,4-dihydro-2H-quinazolin-3-yl)-piperidine-1-carbonyl]-amino}-propionic acid 4-phenyl-cyclohexyl ester]"
3,100 to 1000,"CC(C)(C)OC(=O)N[C@@H](CC(=O)N1CCC(N2Cc3ccccc3NC2=O)CC1)C(=O)N1CCC(N2CCCCC2)CC1 [Example 85, (L)-{1-([1,4′]Bipiperidinyl-1′-carbonyl)-3-oxo-3-[4-(2-oxo-1,4-dihydro-2H-quinazolin-3-yl)-piperidin-1-yl]-propyl}-carbamic acid tert-butyl ester]"
4,100 to 1000,O=C(N[C@@H](CC(=O)N1CCC(N2Cc3ccccc3NC2=O)CC1)C(=O)N1CCC(N2CCCCC2)CC1)c1ccc(Br)cc1 [Example 119]
5,100 to 1000,O=C(Nc1ccc(Cl)cc1C(F)(F)F)N[C@@H](CC(=O)N1CCC(N2Cc3ccccc3NC2=O)CC1)C(=O)N1CCC(N2CCCCC2)CC1 [Example 188]
6,100 to 1000,"O=C(NC(Cc1ccc(OCc2ccccc2)nc1)C(=O)N1CCC(N2CCCCC2)CC1)N1CCC(N2Cc3ccccc3NC2=O)CC1 (racemic) [Example 59, (±)-4-(2-Oxo-1,4-dihydro-2H-quinazolin-3-yl)-piperidine-1-carboxylic acid[1-(6-benzyloxy-pyridin-3-ylmethyl)-2-[1,4′]bipiperidinyl-1′-yl-2-oxo-ethyl]-amide]"
7,10 to 100,CCCCCCCN1CCN(C(=O)C(Cc2ccc3[nH]ncc3c2)NC(=O)N2CCC(N3Cc4ccccc4NC3=O)CC2)CC1 (centres unmarked) [Example 40b]
8,100 to 1000,O=C(NCc1ccccc1)N[C@@H](CC(=O)N1CCC(N2Cc3ccccc3NC2=O)CC1)C(=O)N1CCC(N2CCCCC2)CC1 [Example 145]
9,100 to 1000,CCOc1ccc(NC(=O)N[C@@H](CC(=O)N2CCC(N3Cc4ccccc4NC3=O)CC2)C(=O)N2CCC(N3CCCCC3)CC2)cc1 [Example 189]
10,100 to 1000,O=C(OCc1ccccc1C(=O)N[C@@H](CC(=O)N1CCC(N2Cc3ccccc3NC2=O)CC1)C(=O)N1CCC(N2CCCCC2)CC1)c1ccccc1 [Example 118]
11,100 to 1000,Cc1ccc(F)cc1NC(=O)N[C@@H](CC(=O)N1CCC(N2Cc3ccccc3NC2=O)CC1)C(=O)N1CCC(N2CCCCC2)CC1 [Example 195]
12,10 to 100,"Cc1cc(CC(NC(=O)N2CCC(N3Cc4ccccc4NC3=O)CC2)C(=O)OC2CCCCC2)cc2cn[nH]c12 (centres unmarked) [Example 41a, 3-(7-Methyl-1H-indazol-5-yl)-2-{[4-(2-oxo-1,4-dihydro-2H-quinazolin-3-yl)-piperidine-1-carbonyl]-amino}-propionic acid cyclohexyl ester]"
13,10 to 100,O=C(Nc1cccc(Br)c1)N[C@@H](CC(=O)N1CCC(N2Cc3ccccc3NC2=O)CC1)C(=O)N1CCC(N2CCCCC2)CC1 [Example 176]
14,100 to 1000,CC(C)c1ccc(NC(=O)N[C@@H](CC(=O)N2CCC(N3Cc4ccccc4NC3=O)CC2)C(=O)N2CCC(N3CCCCC3)CC2)cc1 [Example 162]
15,10 to 100,O=C(Nc1ccc(Cl)cc1)N[C@@H](CC(=O)N1CCC(N2Cc3ccccc3NC2=O)CC1)C(=O)N1CCC(N2CCCCC2)CC1 [Example 140]
16,100 to 1000,O=C(Nc1ccc(F)c(F)c1F)N[C@@H](CC(=O)N1CCC(N2Cc3ccccc3NC2=O)CC1)C(=O)N1CCC(N2CCCCC2)CC1 [Example 168]
17,100 to 1000,CCc1cccc(NC(=O)N[C@@H](CC(=O)N2CCC(N3Cc4ccccc4NC3=O)CC2)C(=O)N2CCC(N3CCCCC3)CC2)c1 [Example 142]
18,100 to 1000,CCc1ccc(NC(=O)N[C@@H](CC(=O)N2CCC(N3Cc4ccccc4NC3=O)CC2)C(=O)N2CCC(N3CCCCC3)CC2)cc1 [Example 190]
19,100 to 1000,"O=C(O)C(Cc1ccc2[nH]ncc2c1)NC(=O)N1CCC(N2Cc3ccccc3NC2=O)CC1 (racemic) [Example 1, (±)-3-(1H-Indazol-5-yl)-2-{[4-(2-oxo-1,4-dihydro-2H-quinazolin-3-yl)-piperidine-1-carbonyl]-amino}-propionic acid]"

row,Structure (SMILES),IC50 [nM]
1,O=C(N[C@@H](CC(=O)N1CCC(N2Cc3ccccc3NC2=O)CC1)C(=O)N1CCC(N2CCCCC2)CC1)Oc1ccc(F)cc1 [Example 131],100 to 1000
2,Cc1ccc(OC(=O)N[C@@H](CC(=O)N2CCC(N3Cc4ccccc4NC3=O)CC2)C(=O)N2CCC(N3CCCCC3)CC2)cc1 [Example 132],100 to 1000
3,O=C(N[C@@H](CC(=O)N1CCC(N2Cc3ccccc3NC2=O)CC1)C(=O)N1CCC(N2CCCCC2)CC1)Oc1ccccc1 [Example 130],100 to 1000
